Measured values: ChEMBL document CHEMBL5370659 (J Med Chem, 2023)
≈ marks a conversion by molar mass, not a printed value. Calls of active or inactive are those of the source. The calls are words filed in the database; no cut-off is given here.

Assays:
[1] = target: T1, Tryptophan 5-hydroxylase 1 (Homo sapiens, UniProt P17752); test: Inhibition of recombinant MBP-tagged full length human THP1 using L-Trp as substrate assessed as formation of 5-HTP by measuring fluorescent property
T1 sequence (P17752 whole entry): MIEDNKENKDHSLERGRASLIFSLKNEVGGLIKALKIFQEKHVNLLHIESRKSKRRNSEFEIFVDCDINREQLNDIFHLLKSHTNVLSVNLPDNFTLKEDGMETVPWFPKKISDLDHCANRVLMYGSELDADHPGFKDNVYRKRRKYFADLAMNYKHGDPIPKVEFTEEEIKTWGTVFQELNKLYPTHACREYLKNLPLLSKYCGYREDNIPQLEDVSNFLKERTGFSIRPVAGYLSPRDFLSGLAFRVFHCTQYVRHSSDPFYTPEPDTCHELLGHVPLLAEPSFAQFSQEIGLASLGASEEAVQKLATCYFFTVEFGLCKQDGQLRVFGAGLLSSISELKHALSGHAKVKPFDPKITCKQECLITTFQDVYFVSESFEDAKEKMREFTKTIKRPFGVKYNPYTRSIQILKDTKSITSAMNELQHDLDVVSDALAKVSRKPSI

[2] = Aqueous solubility of the compound in pH 7.4 PBS buffer by HPLC-UV analysis; type: physicochemical
[3] = Apparent permeability across apical to basal side in human Caco-2 cells at pH 6.5/7.4 measured at 5 uM by LC-MS/MS analysis; type: ADME, cell-based; conditions: Caco-2, pH 6.5
[4] = Metabolic stability in human hepatocytes assessed as half life; type: ADME, cell-based, Hepatocyte
[5] = Metabolic stability in human hepatocytes assessed as intrinsic clearance; type: ADME, cell-based, Hepatocyte; conditions: read-out: CLH
[6] = Brain homogenate binding in rat; type: ADME, tissue-based
[7] = target: T1, Tryptophan 5-hydroxylase 1; test: Binding affinity to […] (unknown origin) assessed as equilibrium dissociation constant by surface plasmon resonance analysis
[8] = Cytotoxicity against human serotonergic BON cells assessed as cell viability at 300 uM incubated for 72 hrs by WST-1 assay; type: toxicity, cell-based
Cytochrome P450 2C9 = Cytochrome P450 2C9 (Homo sapiens, UniProt P11712); test: Inhibition of CYP2C9 in human liver microsome using diclofenac as substrate measured upto 50 uM incubated for 10 mins followed by NADPH addition incubated for 10 mins by LC/MS/MS analysis; type: ADME; conditions: microsomes, 20 min
Cytochrome P450 2C9, sequence (P11712 whole entry): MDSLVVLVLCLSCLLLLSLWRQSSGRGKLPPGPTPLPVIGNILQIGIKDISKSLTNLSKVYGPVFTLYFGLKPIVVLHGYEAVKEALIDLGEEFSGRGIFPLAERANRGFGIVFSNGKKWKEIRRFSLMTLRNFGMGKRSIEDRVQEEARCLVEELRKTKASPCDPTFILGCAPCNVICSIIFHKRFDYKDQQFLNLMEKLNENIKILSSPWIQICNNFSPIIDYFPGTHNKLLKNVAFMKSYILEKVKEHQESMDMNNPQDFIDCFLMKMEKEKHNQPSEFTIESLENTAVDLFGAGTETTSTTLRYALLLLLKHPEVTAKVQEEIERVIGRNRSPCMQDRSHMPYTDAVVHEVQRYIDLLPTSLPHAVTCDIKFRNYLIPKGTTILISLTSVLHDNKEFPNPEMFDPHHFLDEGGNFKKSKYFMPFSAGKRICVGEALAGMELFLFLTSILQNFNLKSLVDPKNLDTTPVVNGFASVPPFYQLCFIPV

Cytochrome P450 2D6 = Cytochrome P450 2D6 (Homo sapiens, UniProt P10635); test: Inhibition of CYP2D6 in human liver microsome using dextromethorphan as substrate measured upto 50 uM incubated for 10 mins followed by NADPH addition incubated for 10 mins by LC/MS/MS analysis; type: ADME; conditions: microsomes, 20 min
Cytochrome P450 2D6, sequence (P10635 whole entry): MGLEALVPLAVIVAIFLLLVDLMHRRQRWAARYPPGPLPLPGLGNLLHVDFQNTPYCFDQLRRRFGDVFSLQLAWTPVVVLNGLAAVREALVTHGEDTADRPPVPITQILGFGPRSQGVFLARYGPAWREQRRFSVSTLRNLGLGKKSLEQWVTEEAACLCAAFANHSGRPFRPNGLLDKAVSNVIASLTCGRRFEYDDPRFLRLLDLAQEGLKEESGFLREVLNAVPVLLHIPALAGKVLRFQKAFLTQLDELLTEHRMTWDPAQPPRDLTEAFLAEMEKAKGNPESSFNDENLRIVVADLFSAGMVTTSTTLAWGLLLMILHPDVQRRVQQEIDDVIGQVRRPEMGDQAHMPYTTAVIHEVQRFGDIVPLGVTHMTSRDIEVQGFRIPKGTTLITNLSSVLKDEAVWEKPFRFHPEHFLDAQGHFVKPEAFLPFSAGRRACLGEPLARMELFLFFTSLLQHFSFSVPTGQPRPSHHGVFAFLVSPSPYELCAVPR

[9] = Substrate activity at BCRP in human Caco-2 cells seeded in polyethylene membranes at 2 uM in presence or absence of E3S incubated for 2 hrs by LC-MS/MS analysis based substrate identification assay; type: ADME, cell-based; conditions: caco-2, 2 h
[10] = AUC (0 to last) in CD-1 (ICR) mouse at 50 mg/kg, po measured upto 1440 mins by LC-MS/MS analysis; type: ADME, organism-based; design: time < 1440 min, dose 50 mg/kg, route po; conditions: in vivo
[11] = Drug uptake in CD-1 (ICR) mouse lung at 50 mg/kg measured 0.5 hrs by LC-MS/MS analysis; type: ADME, organism-based; conditions: read-out: Drug uptake
[12] = Volume of distribution at steady state in Sprague-Dawley rat at 10 mg/kg, iv measured upto 1440 mins by LC-MS/MS analysis; type: ADME, organism-based; conditions: in vivo, read-out: Vdss
[13] = AUC (0 to last) in Sprague-Dawley rat at 10 mg/kg, iv measured upto 1440 mins by LC-MS/MS analysis; type: ADME, organism-based; design: time < 1440 min, dose 10 mg/kg, route iv; conditions: in vivo
[14] = AUC (0 to infinitive) in Sprague-Dawley rat at 10 mg/kg, iv measured upto 1440 mins by LC-MS/MS analysis; type: ADME, organism-based; design: dose 10 mg/kg, time < 1440 min, route iv; conditions: in vivo
[15] = MRT (0 to infinitive) in Sprague-Dawley rat at 10 mg/kg, iv measured upto 1440 mins by LC-MS/MS analysis; type: ADME, organism-based; conditions: in vivo
[16] = Cmax in Sprague-Dawley rat at 20 mg/kg, po measured upto 1440 mins by LC-MS/MS analysis; type: ADME, organism-based; design: time < 1440 min, dose 20 mg/kg, route po; conditions: in vivo
[17] = Tmax in Sprague-Dawley rat at 20 mg/kg, po measured upto 1440 mins by LC-MS/MS analysis; type: ADME, organism-based; conditions: in vivo
[18] = Half life in Sprague-Dawley rat at 20 mg/kg, po measured upto 1440 mins by LC-MS/MS analysis; type: ADME, organism-based; conditions: in vivo
[19] = Cmax in Sprague-Dawley rat at 50 mg/kg, po measured upto 1440 mins by LC-MS/MS analysis; type: ADME, organism-based; design: time < 1440 min, dose 50 mg/kg, route po; conditions: in vivo
[20] = Tmax in Sprague-Dawley rat at 50 mg/kg, po measured upto 1440 mins by LC-MS/MS analysis; type: ADME, organism-based; conditions: in vivo
[21] = MRT (0 to last) in Sprague-Dawley rat at 50 mg/kg, po measured upto 1440 mins by LC-MS/MS analysis; type: ADME, organism-based; conditions: in vivo
[22] = Oral bioavailability in Sprague-Dawley rat at 50 mg/kg measured upto 1440 mins by LC-MS/MS analysis; type: ADME, organism-based; conditions: in vivo
[23] = Plasma concentration in Sprague-Dawley rat at 50 mg/kg, po measured at 0.5 hrs by LC-MS/MS analysis; type: ADME, organism-based
[24] = Plasma concentration in Sprague-Dawley rat at 50 mg/kg, po measured at 2 hrs by LC-MS/MS analysis; type: ADME, organism-based
[25] = Drug uptake in Sprague-Dawley rat brain at 50 mg/kg, po measured at 0.5 hrs by LC-MS/MS analysis; type: ADME, organism-based; conditions: read-out: Drug uptake
[26] = Plasma concentration in Sprague-Dawley rat at 20 mg/kg, po measured at 2 hrs by LC-MS/MS analysis; type: ADME, organism-based
[27] = Toxicity in C57BL/6N mouse assessed as general toxic effects at 1.5 to 15 mg/kg, po bid treated for 7 days; type: organism-based; conditions: in vivo, 168 h, dose 1.5-15 mg/kg, time 7 day
[28] = Toxicity in C57BL/6N mouse assessed as behavioral changes at 1.5 to 50 mg/kg, po bid treated for 6 to 7 days; type: organism-based; conditions: in vivo, dose lower 1.5 mg/kg, time lower 6 day, dose upper 50 mg/kg, time upper 7 day
Mus musculus [29] = test: Effect on time spent in central zone of C57BL/6N mouse at 20 mg/kg, po treated for 14 days by locomotor activity test; type: functional, organism-based; conditions: time 14.0 day
Mus musculus [30] = test: Effect on hedonic component behavior in C57BL/6N mouse at 10 mg/kg, po treated for 14 days by sucrose preference test; type: functional, organism-based; conditions: time 14.0 day
Mus musculus [31] = test: Effect on total duration of immobility in C57BL/6N mouse at 50 mg/kg, po treated for 14 days by tail suspension test; type: functional, organism-based; conditions: time 14.0 day
MC-38 = test: Antitumor activity against mouse MC-38 cells subcutaneously transplanted in C57BL/6N mouse assessed as reduction in absolute tumor volume at 50 mg/kg, po bid measured on day 13 relative to control; type: functional; conditions: MC-38, 312 h, route sc, time 13 day
[32] = Toxicity in C57BL/6N mouse subcutaneously transplanted with mouse MC-38 cells assessed as body weight change at 50 mg/kg, po bid measured on day 20; type: organism-based; conditions: in vivo, sc, 480 h, time 20 day

Compound: CCn1c(=O)[nH]c(=O)c2c1nc(Cc1cn3cc(C)sc3n1)n2CC1COC1
- IC50 [1]: 77 nM
- solubility [2]: 189 µM (≈ 75.7 µg/mL)
- Papp A→B at 5 µM [3]: 0.14 ×10⁻⁶ cm/s
- half-life [4]: > 145 min
- CLint scaled [5]: < 8.6 mL/min/kg
- Activity [6]: 70%
- Kd [7]: 3.2 nM
- Activity [8]: Non-Toxic
- inhibition (INH) (Cytochrome P450 2C9): Not Active
- inhibition (INH) (Cytochrome P450 2D6): Not Active
- Activity [9]: Not Active
- AUC(0-t) at 24 h [10]: 8540 ng·h/mL
- concentration at 0.5 h [11]: 1720 ng/g
- Vd [12]: 1.4 L/kg
- AUC(0-t) at 24 h [13]: 5000 ng·h/mL
- AUC(0-inf) [14]: 5030 ng·h/mL
- MRT inf [15]: 42 min
- Cmax [16]: 2090 ng/mL
- Tmax [17]: 25.2 min
- half-life [18]: 269 min
- Cmax [19]: 4100 ng/mL
- Tmax [20]: 49.8 min
- MRT last at 24 h [21]: 158 min
- bioavailability [22]: 32.7%
- concentration at 0.5 h [23]: 5950 ng/mL
- concentration at 2 h [24]: 1370 ng/mL
- concentration at 0.5 h [25]: 43 ng/g
- concentration at 2 h [26]: 196 ng/mL
- Activity [27]: Non-Toxic
- Activity [28]: Non-Toxic
- Activity (Mus musculus [29]): inactive
- Activity (Mus musculus [30]): inactive
- Activity (Mus musculus [31]): inactive
- inhibition in vivo at 50 mg/kg (MC-38): 50%
- Activity [32]: Non-Toxic
